From patent publication EP0970046B1, “N-HYDROXY-2-(ALKYL, ARYL, OR HETEROARYL SULFANYL, SULFINYL OR SULFONYL)-3-SUBSTITUTED ALKYL, ARYL OR HETEROARYLAMIDES AS MATRIX METALLOPROTEINASE INHIBITORS” (Wyeth Holdings Corporation, priority 1997, dated 1998)
Where two headings read alike, the source gives them in different places.

Columns and labels:
TACE = biological target: T1, TACE (Homo sapiens, UniProt P78536); experiment: Procedure for Measuring TACE Inhibition; assay type: biochemical; settings: for inhibition at 1 µM: read-out: TACE % inhibition at 1 µM
T1 construct: purchased Immunex
Experimental: Using 96-well black microtiter plates, each well receives a solution composed of 10 µL TACE (Immunex, final concentration 1µg/mL), 70µL Tris buffer, pH 7.4 containing 10% glycerol (final concentration 10 mM), and 10 µL of test compound solution in DMSO (final concentration 1µM, DMSO concentration <1%) and incubated for 10 minutes at room temperature. The reaction is initiated by addition of a fluorescent peptidyl substrate (final concentration 100 µM) to each well and then shaking on a shaker for 5 sec. The reaction is read (excitation 340 nm, emission 420 nm) for 10 min. and the increase in fluorescence over time is plotted as a linear line. The slope of the line is calculated and represents the reaction rate. The linearity of the reaction rate is confirmed (r^2 >0.85). The mean (x±sem) of the control rate is calculated and compared for statistical significance (p<0.05) with drug-treated rates using Dunnett's multiple comparison test.

MMP 13 = MMP 13 (Homo sapiens, UniProt P45452); experiment: MMP 13 inhibition (HTS; method not described); assay type: biochemical; settings: HTS; for inhibition at 0.036 µM: read-out: MMP 13 % inhibition at 36 nM (HTS); for inhibition at 0.036 µM / MMP 13 % inhibition at 36 nM (HTS): 36 nM; for inhibition at 0.2 µM: read-out: MMP 13 % inhibition at 0.2 µM (HTS)

T1 sequence (P78536 215-824): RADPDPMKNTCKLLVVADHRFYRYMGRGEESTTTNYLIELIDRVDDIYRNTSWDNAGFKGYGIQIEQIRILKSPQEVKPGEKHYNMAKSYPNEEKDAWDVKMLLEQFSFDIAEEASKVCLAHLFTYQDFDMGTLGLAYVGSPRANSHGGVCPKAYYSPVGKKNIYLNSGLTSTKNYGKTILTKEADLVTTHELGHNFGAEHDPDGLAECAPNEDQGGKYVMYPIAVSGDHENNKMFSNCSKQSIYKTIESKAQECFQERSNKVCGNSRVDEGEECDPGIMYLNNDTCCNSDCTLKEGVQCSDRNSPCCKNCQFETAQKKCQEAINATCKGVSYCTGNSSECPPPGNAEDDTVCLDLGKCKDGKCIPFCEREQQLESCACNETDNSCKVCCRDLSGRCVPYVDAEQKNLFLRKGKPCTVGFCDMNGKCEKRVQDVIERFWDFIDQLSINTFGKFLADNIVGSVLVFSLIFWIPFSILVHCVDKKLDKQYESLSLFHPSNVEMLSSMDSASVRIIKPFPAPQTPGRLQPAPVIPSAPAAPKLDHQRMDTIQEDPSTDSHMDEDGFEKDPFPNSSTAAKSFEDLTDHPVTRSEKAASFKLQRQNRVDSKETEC

inhibition at 1 µM (TACE; Examples 169-240) | inhibition at 0.036 µM (MMP 13) | inhibition at 1 µM (TACE; Examples 110-168) | inhibition at 0.2 µM (MMP 13) | Compound | also measured
– | – | – | – | CCC(SCC(=O)OC)C(=O)NO (centres unmarked) [Example 119, (1-Hydroxycarbamoyl-propane-1-sulfanyl)-acetic acid methyl ester] | TACE % inhibition at 1 µM (TACE; Examples 110-168): 7.8%; MMP 13 % inhibition at 0.2 µM (HTS) (MMP 13): 0%
– | – | – | – | O=C(CCC(Sc1ccc(Br)cc1)C(=O)NO)NO (centres unmarked) [Example 134, 4-Hydroxycarbamoyl-4-(4-bromo-benzenesulfanyl)-butyric acid hydroxyamide] | TACE % inhibition at 1 µM (TACE; Examples 110-168): -9.31%; MMP 13 % inhibition at 0.2 µM (HTS) (MMP 13): 25%
33.2% | -32% | – | – | CCCCCCC(C(=O)NO)S(=O)(=O)c1cccc(C(=O)NO)c1 (centres unmarked) [Example 192, 3-(1-Hydroxycarbamoyl-heptylsulfonyl)-benzoic acid hydroxyamide] | –
– | – | 9.1% | 0% | CC(C)C(C(=O)NO)S(=O)(=O)c1ccc2ccccc2c1 (centres unmarked) [Example 116, N-Hydroxy-3-methyl-2-(naphthalen-2-ylsulfonyl)-butyramide] | –
38.3% | -35% | – | – | CCCCCCC(C(=O)NO)[S+]([O-])c1cccc2cccnc12 (centres unmarked) [Example 190, 2-(Quinoline-8-sulfinyl)-octanoic acid hydroxyamide] | –
41.6% | 23% | – | – | CCCCCCC(Sc1ccc(N2CCNCC2)cc1)C(=O)NO (centres unmarked) [Example 231, 2-(4-Piperazin-1-yl-phenylsulfanyl)-octanoic acid hydroxyamide] | –
85.5% | -14% | – | – | CCCCCCC(SCC1NC(=O)NC1=O)C(=O)NO (centres unmarked) [Example 187, 2-(2,5-Dioxo-imidazolidin-4-ylmethylsulfanyl)-octanoic acid hydroxyamide] | –
– | – | – | – | COc1ccc(SC(C)C(=O)NO)cc1 (centres unmarked) [Example 111, N-Hydroxy-2-(4-methoxy-benzenesulfanyl)-propionamide] | TACE % inhibition at 1 µM (TACE; Examples 110-168): 40.4%; MMP 13 % inhibition at 0.2 µM (HTS) (MMP 13): 10%
– | – | – | – | 2,5-Dichloro-thiophene-3-sulfonic acid 4-(1-hydroxycarbamoyl-heptylsulfanyl)-hydroxyamide [Example 233] | TACE % inhibition at 1 µM (TACE; Examples 169-240): 19.8%; MMP 13 % inhibition at 36 nM (HTS) (MMP 13): 33%
– | – | 5.93% | 6% | O=C(NO)C(COCc1ccccc1)S(=O)(=O)Cc1ccccc1Cl (centres unmarked) [Example 151, 3-Benzyloxy-N-hydroxy-2-(2-chloro-benzylsulfonyl)-propionamide] | –
– | – | 1.82% | 54% | O=C(NO)C(COCc1ccccc1)[S+]([O-])Cc1ccccc1Cl (centres unmarked) [Example 150, 3-Benzyloxy-N-hydroxy-2-(2-chloro-benzylsulfinyl)-propionamide] | –
72.1% | 29% | – | – | CCCCCCC(Sc1ccc(N2CCCCC2)cc1)C(=O)NO (centres unmarked) [Example 230, 2-(4-Piperidin-1-yl-phenylsulfanyl)-octanoic acid hydroxyamide] | IC50 (TACE; Examples 169-240, read-out: TACE IC50): 700 nM
– | – | 42.7% | 89% | O=C(CCC(C(=O)NO)S(=O)(=O)c1ccc(Br)cc1)NO (centres unmarked) [Example 136, 4-Hydroxycarbamoyl-4-(4-bromo-benzenesulfonyl)-butyric acid hydroxyamide] | –
– | – | 13.1% | 0% | CC(C)CCS(=O)(=O)C(C)C(=O)NO (centres unmarked) [Example 113, N-Hydroxy-2-(3-methyl-butane-1-sulfonyl)-propionamide] | –
– | – | 4.41% | 13% | O=C(NO)C(COCc1ccccc1)SCc1ccccc1Cl (centres unmarked) [Example 149, 3-Benzyloxy-N-hydroxy-2-(2-chloro-benzylsulfanyl)-propionamide] | –
– | – | 0% | 0% | CC(C)C(Sc1ccc2ccccc2c1)C(=O)NO (centres unmarked) [Example 114, N-hydroxy-3-methyl-2-(naphthalen-2-ylsulfanyl)-butyramide] | –
– | – | 29.2% | 47% | O=C(NO)C(Cc1ccccc1)S(=O)(=O)c1ccc(O)cc1 (centres unmarked) [Example 127, 2-(4-Hydroxybenzenesulfonyl)-N-hydroxy-3-phenyl-propionamide] | –
6.8% | 37% | – | – | CCCCCCC(Sc1ccc(NC2CCCC2)cc1)C(=O)NO (centres unmarked) [Example 228, 2-(4-Cyclopentylamino-phenylsulfanyl)-octanoic acid hydroxyamide] | –
– | – | 9.52% | 84% | CCCCCCC(C(=O)NO)[S+]([O-])c1cccc(OC)c1 (centres unmarked) [Example 163, 2-(3-Methoxybenzenesulfinyl)-octanoic acid hydroxyamide] | –

inhibition at 1 µM (TACE; Examples 169-240) | inhibition at 0.036 µM (MMP 13) | inhibition at 1 µM (TACE; Examples 110-168) | inhibition at 0.2 µM (MMP 13) | Compound | also measured
– | – | 0% | 0% | CC(C)C(C(=O)NO)[S+]([O-])c1ccc2ccccc2c1 (centres unmarked) [Example 115, N-Hydroxy-3-methyl-2-(naphthalen-2-ylsulfinyl)-butyramide] | –
34.4% | 14% | – | – | CCCCCCC(C(=O)NO)[S+]([O-])CCc1cnccn1 (centres unmarked) [Example 180, 2-(2-Pyrazin-2-yl-ethylsulfinyl)-octanoic acid hydroxyamide] | –
7.3% | 15% | – | – | CCCCCCC(Sc1ccc(Nc2ccncc2)cc1)C(=O)NO (centres unmarked) [Example 227, 2-[4-(Pyridin-4-ylamino)-phenylsulfanyl]-octanoic acid hydroxyamide] | –
– | – | 8.96% | 27% | CCCCCCC(C(=O)NO)S(=O)(=O)c1ccc(OC)c(OC)c1 (centres unmarked) [Example 167, 2-(3,4-Dimethoxybenzenesulfonyl)-octanoic acid hydroxyamide] | –
– | – | 4.16% | 9% | CCCCCCC(C(=O)NO)[S+]([O-])c1ccc(OC)c(OC)c1 (centres unmarked) [Example 166, 2-(3,4-Dimethoxybenzenesulfinyl)-octanoic acid hydroxyamide] | –
5.4% | -17% | – | – | CCCCCCC(C(=O)NO)S(=O)(=O)c1ncc[nH]1 (centres unmarked) [Example 194, 2-(1H-Imidazole-2-sulfonyl)-octanoic acid hydroxyamide] | –
– | – | – | – | (1-Hydroxycarbamoyl-propane-1-sulfanyl)-propionic acid hydroxyamide [Example 122] | TACE % inhibition at 1 µM (TACE; Examples 110-168): 3.1%; MMP 13 % inhibition at 0.2 µM (HTS) (MMP 13): 0%
26.6% | 6% | – | – | CCCCCCC(Sc1nnnn1C)C(=O)NO (centres unmarked) [Example 176, 2-(1-Methyl-1H-tetrazol-5-ylsulfanyl)-octanoic acid hydroxyamide] | –
– | – | – | – | O=C(CCC(Sc1ccccc1C(F)(F)F)C(=O)NO)NO (centres unmarked) [Example 137, 4-Hydroxycarbamoyl-4-(2-trifluoromethyl-benzenesulfanyl)-butyric acid hydroxyamide] | TACE % inhibition at 1 µM (TACE; Examples 110-168): 13.35%; MMP 13 % inhibition at 0.2 µM (HTS) (MMP 13): 83%
– | – | 17.6% | 75% | COc1ccc(S(=O)(=O)C(C)C(=O)NO)cc1 (centres unmarked) [Example 110, N-Hydroxy-2-(4-methoxy-benzenesulfonyl)-propionamide] | –
32.9% | 16% | – | – | CCCCCCC(SCCc1cnccn1)C(=O)NO (centres unmarked) [Example 175, 2-(2-Pyrazin-2-yl-ethylsulfanyl)-octanoic acid hydroxyamide] | inhibition (MMP 13; read-out: MMP 13 % inhibition (HTS)): 37%
– | – | – | – | Benzo[1,2,5]thiadiazole-4-sulfonic acid 4-(1-hydroxycarbamoyl-heptylsulfonyl)-hydroxyamide [Example 240] | TACE % inhibition at 1 µM (TACE; Examples 169-240): 40.3%; MMP 13 % inhibition at 36 nM (HTS) (MMP 13): 48%
– | – | 27.9% | 28% | CC(=O)Nc1ccc(S(=O)(=O)C(Cc2ccccc2)C(=O)NO)cc1 (centres unmarked) [Example 130, 2-(4-Acetylamino-benzenesulfonyl)-N-hydroxy-3-phenyl-propionamide] | –
19.5% | -14% | – | – | CCCCCCC(Sc1nccs1)C(=O)NO (centres unmarked) [Example 186, 2-(Thiazol-2-ylsulfanyl)-octanoic acid hydroxyamide] | –
14.9% | -32% | – | – | CCCCCCC(C(=O)NO)S(=O)(=O)c1ccc(CCC(=O)NO)cc1 (centres unmarked) [Example 193, 3-[4-(1-Hydroxycarbamoyl-heptylsulfonyl)-phenyl]-propionic acid hydroxy amide] | –
– | – | – | – | 5-Chloro-1,3-dimethyl-1H-pyrazole-4-sulfonic acid 4-(1-hydroxycarbamoyl-heptylsulfinyl)-hydroxyamide [Example 235] | TACE % inhibition at 1 µM (TACE; Examples 169-240): 48.3%; MMP 13 % inhibition at 36 nM (HTS) (MMP 13): 59%
– | – | 16.7% | 24% | CC(C)C(C(=O)NO)S(=O)(=O)CCc1ccccc1 (centres unmarked) [Example 118, N-Hydroxy-3-methyl-2-phenethylsulfonyl-butyramide] | –
– | – | 12.7% | 0% | CCCCCCC(C(=O)NO)S(=O)(=O)c1cc(Cl)ccc1Cl (centres unmarked) [Example 161, 2-(2,5-Dichlorobenzenesulfonyl)-octanoic acid hydroxyamide] | –
– | – | 10.4% | 25% | O=C(NO)C(Cc1ccccc1)[S+]([O-])c1ccc(O)cc1 (centres unmarked) [Example 126, 2-(4-Hydroxybenzenesulfinyl)-N-hydroxy-3-phenyl-propionamide] | –

Compound | inhibition at 1 µM (TACE; Examples 169-240) | inhibition at 0.036 µM (MMP 13) | inhibition at 1 µM (TACE; Examples 110-168) | inhibition at 0.2 µM (MMP 13) | also measured
O=C(NO)C(Cc1cnc[nH]1)[S+]([O-])c1ccc(Br)cc1 (centres unmarked) [Example 153, 2-(4-bromo-benzenesulfinyl)-N-hydroxy-3-(3H-imidazol-4-yl)-propionamide] | – | – | 11.8% | 12% | –
